Series [1] concerns DEX-treated mice. Briefly: Forced swimming test (FST), neonatal dexamethasone exposure model of depression. The class given is in vivo. The settings on record: juvenile DEX-treated mice, 10 mg/kg i.p. single injection. As for the experimental part:
A new animal model of depression was prepared by exposing mice neonatally to dexamethasone (hereinafter abbreviated as DEX). […] The mouse model was prepared and reported only recently by the inventors of the present application and their collaborators (Non Patent Literature 18). […] Further, alterations were found in levels of amino acids (glutamate, glutamine, glycine, D-serine, and L-serine) in mouse brains after the neonatal DEX exposure (Non Patent Literature 18). Those amino acids are known to be associated with NMDA receptor mediated neurotransmission. Thus, it is conceivable that alterations in glutamatergic transmission via the NMDA receptor after the neonatal DEX exposure may be involved in the depression-like behavior in the juvenile mice and the adult mice (Non Patent Literature 18).
The preparation of the animal model of depression and the administration of the agent were specifically performed as described below (FIG. 2A). Male and female ICR mice (9-week-old, Japan SLC, Inc., Hamamatsu, Japan) were used. The mice were given free access to water and feed. A breeding procedure consisted of housing three to four females with one male, for 14 days. On the final day of this period, the females were placed in isolation and checked daily around the expected delivery day. The day of birth was defined as day 0. The mice were injected intraperitoneally with DEX (Wako Pure Chemical Industries, Ltd., Tokyo, Japan) dissolved in saline on day 1, day 2, and day 3 at doses of 0.5 mg/kg body weight, 0.3 mg/kg body weight, and 0.1 mg/kg body weight, respectively. In addition, normal controls were injected with equal volumes (10 ml/kg) of saline.
The antidepressant effects of the agent were investigated for juvenile mice by behavioral tests such as the TST, the PST, the LMT, and a 1% sucrose preference test (SPT) (FIG. 2A). The TST and the PST were performed twice, i.e., the day (27 hours and 29 hours, respectively) and 7 days after the injection of ketamine, and the LMT and the SPT were performed on the day and 2 days after the injection of ketamine. The TST was performed as described below. First, the mice were taken out from cages, and then a small piece of an adhesive tape was bonded onto a portion approximately 2 cm away from the tip of the tail of the mice. […] The immobility time of each mouse was recorded for 10 minutes. […] The immobility time was calculated as a value obtained by subtracting active time from total time, using the analysis software of the apparatus. Cumulative immobility time was recorded over 6 minutes during a test period. […] The locomotor activity of the mice was counted with SCANET MV-40, and the cumulative exercise of the mice was recorded for 60 minutes. […]

For series [2], the system named is Chronic pain patients. The settings on record: chronic pain patients after i.v. R,S-ketamine; Persson et al., 1998; cited from earlier work.
For series [3], the system named is social defeat stress mice. Briefly: Locomotion test (LMT), social defeat stress model. It is filed as in vivo. As to conditions: 10 mg/kg i.p., 2 days after injection. The method, then: A social defeat stress model of depression was prepared by bringing C57/B6 male mice into contact with ICR male mice (large aggressive mice) for 10 consecutive days to apply a stress called a “social defeat stress” in accordance with the previous report (Non Patent Literature 19). […] Specifically, an increase in immobility time was found in each of a tail suspension test (TST) and a forced swimming test (FST).
The preparation of the animal model of depression and the administration of the agent were specifically performed as described below (FIG. 3A). Male C57/B6 mice (7-week-old, Japan SLC, Inc., Hamamatsu, Japan) and ICR mice (9-week-old, Japan SLC, Inc., Hamamatsu, Japan) were used. […]
The antidepressant effects of the agent were investigated by behavioral tests such as the TST, the PST, the LMT, and a 1% sucrose preference test (SPT) (FIG. 3A). […] The immobility time of each mouse was recorded for 10 minutes. […] The immobility time was calculated as a value obtained by subtracting active time from total time, using the analysis software of the apparatus. Cumulative immobility time was recorded over 6 minutes during a test period. […] The locomotor activity of the mice was counted with SCANET MV-40, and the cumulative exercise of the mice was recorded for 60 minutes. […] A spine density was quantitatively evaluated by observation with a KEYENCE microscope (BZ-9000, Osaka, Japan).

For the molecule `CN[C@]1(c2ccccc2Cl)CCCCC1=O` [S(+)-ketamine], the “immobility time in the FST” value in series [1] (29 hours after injection) was “markedly reduced the immobility time”; in series [1] (7 days after injection), “did not reduce the immobility time”. In addition, the “Plasma levels of S analyzed” value in series [2] is listed as “Plasma levels of S analyzed (50-400 ng/ml)”. The “locomotion in the LMT” value in series [3] is “no difference in locomotion”.
For the molecule `CN[C@@]1(c2ccccc2Cl)CCCCC1=O.Cl` [R(−)-ketamine], the entries for the “immobility time in the FST” value in series [1] (29 hours after injection) and in series [1] (7 days after injection) were “markedly reduced the immobility time” and “significantly reduced the immobility time”, respectively. For the same molecule, the “locomotion in the LMT” value in series [3] is recorded as “no difference in locomotion”.

These data come from patent US11426367B2, “Methods of treating substance abuse” (Perception Neuroscience, Inc., priority 2018, dated 2022).
